The record followed here is PubChem BioAssay (NCI).

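Step 1: Grow cells in 96-well plates. Step 2: Expose to compound for 48 hours at 5 concentrations. Step 3: Interpolate endpoints linearly; if unreached, use highest concentration. GI50 marks 50% less growth. The concentration for full growth arrest is given as TGI.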

What all share (experiment): DTP human tumour cell line panel, 48 h
Assay [1] relates to OVCAR-4 ovarian.
In assay [2] the test system is NCI-H460 lung.
For assay [3], the system named is HT29 colon.
Assay [4] has as its system OVCAR-3 ovarian.
Assay [5] relates to HCT-15 colon.
The test system of assay [6] is SNB-75 CNS.
Assay [7] deals with CCRF-CEM leukemia.
Assay [8] deals with SNB-19 CNS.
Assay [9] deals with SF-539 CNS.

With `O=C(NCCCCN=c1cccccc1NCCCCNC(=O)OCc1ccccc1)OCc1ccccc1`, the total growth inhibition concentration (TGI) is 57.5 µM in [1]; 26.4 µM in assay [2]; 18.7 µM in [3]; 29.5 µM in assay [4]; 23.2 µM in [5]; 39.6 µM in [6]. Further, the concentration for total growth inhibition (TGI) in [7] turned out to be 47.8 µM; in assay [8] it was 79.8 µM; in assay [9], 31.8 µM.
With `CCOC(=O)C1(c2ccccc2)CCC(=O)CC1`, the TGI in [1], in assay [2], in assay [3], in assay [4], in [5] and in [6] was more than 100 µM throughout. The TGI in [7] and in [8] was more than 100 µM in each case.
For the compound `CN(C)c1c([O-])c(=[N+](C)C)c1=O`, the concentration for total growth inhibition (TGI) in [2], in assay [3], in assay [4], in assay [5], in [6] and in [7] was more than 100 µM throughout. Besides, the total growth inhibition concentration (TGI) in assay [8] and in [9] was more than 100 µM in each case.
In the case of `CC[C@@]12N=C(N(C)C)C[C@]1(O)ON=C2C`, the TGI in [1], in assay [2], in assay [3], in assay [4], in [5] and in assay [6] was more than 100 µM each time. Besides, the TGI in assay [7], in assay [8] and in assay [9] was more than 100 µM each time.
As for `O=C(O)CSc1n[nH]c(-c2ccccc2)n1`, the concentration for total growth inhibition (TGI) in assay [1], in assay [2], in assay [3], in [4], in assay [5] and in [6] was more than 100 µM each time. Also, the TGI in assay [7], in assay [8] and in [9] was more than 100 µM each time.
With `O=c1[nH]cc(COCCO)c(=O)[nH]1`, the total growth inhibition concentration (TGI) in assay [1], in assay [2], in assay [3], in assay [4], in assay [5] and in [6] was more than 100 µM in each case. The total growth inhibition concentration (TGI) in assay [7], in assay [8] and in [9] was more than 100 µM throughout.
With `O=C1c2ccccc2C2(O)c3cc4ccccc4cc3OC12O` (stereo not drawn), the TGI in [1], in assay [2], in assay [3], in [4], in assay [5] and in assay [6] was more than 100 µM in each case. Moreover, the TGI in assay [7], in [8] and in [9] was more than 100 µM throughout.
Turning to `Cc1ccc(NC(=O)C2C(=O)N(c3ccc(C)c(C)c3)C(=O)C2N=N)cc1C` (stereo not drawn), the TGI in [1], in assay [2], in assay [3], in [4], in assay [5] and in [6] was more than 100 µM in each case. Moreover, the TGI in assay [8] and in assay [9] was more than 100 µM each time.
For `O=C(Nc1cc(Cl)ccc1Cl)c1cc2cccc(Cl)c2oc1=O`, the TGI in assay [2], in assay [3], in assay [4], in assay [5], in [6] and in assay [7] was more than 100 µM each time. In [9], this compound had a concentration for total growth inhibition (TGI) of more than 100 µM.
`O=C(CSc1nnc(-c2ccc(N=Cc3ccc(Cl)cc3)cc2)o1)Nc1ccc(Cl)cc1`: the concentration for total growth inhibition (TGI) in assay [1], in [2], in [3], in assay [5], in assay [6] and in assay [7] was more than 100 µM in each case. Moreover, in assay [8], the TGI was more than 100 µM.
`CC(=O)n1c2c(c(=O)n1-c1ccccc1)S(=O)CCC2` (stereo not drawn): the TGI in assay [1] was 44.4 µM; in [2], more than 100 µM; in assay [3] it was more than 100 µM; in assay [4], more than 100 µM; in assay [5], more than 100 µM; in [6], more than 100 µM. In addition, the concentration for total growth inhibition (TGI) in assay [7] is 26.4 µM; in [8], more than 100 µM; in assay [9], more than 100 µM.
On to `CCc1c(OC(C)=O)c2c(NC3OC(COC(C)=O)C(OC(C)=O)C(OC(C)=O)C3OC(C)=O)nc(OC)nc2oc1=O` (stereo not drawn), for which the TGI in assay [1], in assay [2], in assay [3], in assay [4], in [5] and in assay [6] was more than 100 µM each time. Besides, the TGI in assay [7], in assay [8] and in assay [9] was more than 100 µM each time.
Take `CCCCCCC[CH2][Sn]1([CH2]CCCCCCC)[O]C(=O)c2cccnc2[S]1`: the GI50 in assay [1], in assay [2], in [3], in [4], in assay [5] and in assay [6] was more than 100 µM in each case. Further, the GI50 in assay [7], in [8] and in assay [9] was more than 100 µM throughout. In addition, the TGI in assay [1], in [2], in assay [3], in [4], in assay [5] and in assay [6] was more than 100 µM throughout. Further, the total growth inhibition concentration (TGI) in assay [7], in assay [8] and in [9] was more than 100 µM in each case.
As to `O=[N+]([O-])c1ccc(-n2nnc(C3=NCCN3)c2-c2ccc(Cl)cc2)cc1`, the TGI in assay [1], in assay [2], in assay [3], in assay [4], in assay [5] and in assay [6] was more than 100 µM throughout. For the same compound, the TGI in [7], in assay [8] and in assay [9] was more than 100 µM throughout.

Usually TGI stands for the concentration at which net growth stops. By GI50 is commonly meant the concentration that inhibits growth by half.
